In patent US12173018B2, “Penicillin-binding protein inhibitors” (priority 2018, dated 2024):
Converted amounts (≈) assume the structure as drawn. Where two headings read alike, the source gives them in different places.

Legend:
E. coli PBP2 = E. coli PBP2 (Escherichia coli (strain K12), UniProt P0AD65); test: E. coli PBP2 Bocillin-FL fluorescence polarization competition binding assay; conditions: fluorescence polarization competition binding with Bocillin-FL; read-out: E. coli K12 PBP2 Potency (EC50)
Summary of the method: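 Purified PBP2 at 1.5 μM final was preincubated with boronic acid inhibitor, then Bocillin-FL added to 0.1 μM final in Hepes pH 8.0/NaCl/glycerol buffer. Polarization was monitored 90 min; the concentration halving probe binding is reported as EC50.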

[1] = system: engineered strain of Escherichia coli harboring CTX-M15; test: microbe, parasite or virus in culture; assay type: cell-based; conditions: Escherichia coli, read-out: Microbiological Activity (MIC in mg/L), E. coli DH5α/pLBII-CTX-M15, engineered strain producing CTX-M15
P. aeruginosa ATCC 27853 = test: Broth microdilution MIC, P. aeruginosa ATCC 27853; assay type: cell-based; conditions: Pseudomonas aeruginosa
Method: To determine the ability of test compounds to potentiate the inhibition of the growth of bacterial strains, classic cell based broth microdilution minimum inhibitory concentration (MIC) assays were employed. MIC assays are performed according to CLSI methods except where otherwise noted (CLSI, 2011 and CLSI, 2009). The reference type strain E. coli ATCC 25922, the wild-type parent strain E. coli AG100, the hyper-permeable E. coli 901C and E. coli D22 and the E. coli AG100A strain lacking the acrAB efflux pump encoding genes were used to determine the ability of the PBP inhibitors to penetrate the outer membrane of gram-negative bacteria and inhibit bacterial growth. […] The P. aeruginosa PAO1, P. aeruginosa ATCC 27853 and A. baumannii ATCC 19606, along with the hyper-permeable P. aeruginosa ATCC 35151 and an engineered efflux pump-compromised strain of P. aeruginosa (ΔmexAB-oprM) were used to determine the ability of PBP inhibitors to penetrate the outer membrane of P. aeruginosa and A. baumannii and assess antibacterial activity against these important gram-negative organisms.
Briefly, cryo-preserved bacterial cultures of challenge strains are streaked for isolation on appropriate agar medium, in this case Mueller Hinton II agar. Following incubation to allow growth of the colonies, plates are sealed with parafilm and stored refrigerated for up to two weeks. For preparation of assay inoculum and to ensure low variability, at least 5 colonies are picked from the agar plates with an inoculating loop and aseptically transferred to a culture tube containing 3 mL of Mueller-Hinton Broth (supplemented with divalent cations to required levels based on Manufacturers' certification). The broth culture is grown for 3-5 hours at 37° C. with shaking at 200 rpm. Meanwhile, 2-fold serial dilutions of test compounds are conducted in a 96 well plate with a final volume of 75 μL per well at 2-fold the final desired concentration. After the dilution plates are set up the growing cultures are then diluted in a cuvette containing MH II broth and the optical density is measured at 600 nm. The Inoculum is diluted such that 75 μL of this culture in Mueller-Hinton Broth results in a starting bacterial concentration of 5×10^5 CFU/mL when added to the dilution plates. The plates are incubated for 16-20 hours at 37° C. The MIC values are read visually as the lowest concentration well with no bacterial growth.

E. coli PBP4 = E. coli PBP4 (Escherichia coli (strain K12), UniProt P24228); test: E. coli PBP4 Bocillin-FL fluorescence polarization competition binding assay
From the text: To determine the ability of boronic acid-based test PBP inhibitors to bind Penicillin Binding Proteins (PBPs), Bocillin-FL (fluorescently-labeled penicillin V; ThermoFisher Scientific) was used in a fluorescence polarization (FP) competition binding assay to assess inhibitor binding to PBP2, PBP3 or PBP4 from Escherichia coli. PBPs were cloned and purified as described previously (King, D. T, et al., ACS Infectious Diseases 2015, 1, 175-184). To establish assay conditions for competition binding, an enzyme titration/saturation binding experiment was initially performed. Bocillin-FL was prepared at 0.2 μM in a buffer comprised of 50 mM Hepes (pH 8.0), 300 mM NaCl and 5% (v/v) glycerol. Saturation binding was performed by mixing 40 μl of PBP solutions ranging in concentrations from 0-12 μM with 40 μl of the 0.2 μM Bocillin-FL solution, in individual wells of a black 384-well microplate. FP was measured immediately upon mixing (Excitation, 490 nm; Emission, 520 nm; g-factor, 0.96), using a Cytation3 (BioTek) microplate reader and measured continuously for up to 120 minutes. […] Assays (80 μl final volume) were performed with PBPs at a final concentration of 1.5 μM, Bocillin-FL at 0.1 μM and beta-lactam concentrations that ranged from 0-1000 μM. […] Bocillin-FL was added and the FP immediately measured for 60 minutes (90 minutes for PBP2). The beta-lactam potency was reported as the concentration of beta-lactam required to reduce binding of Bocillin-FL by […] (EC50). […] Binding assays for boronic acid PBP inhibitors were performed in an identical fashion.

[2] = ATCC27853, P. aeruginosa ATCC 27853, broth microdilution, read-out: MIC P. aeruginosa ATCC 27853
[3] = fluorescence polarization competition binding with Bocillin-FL, read-out: E. coli K12 PBP4 Potency (EC50)

E. coli PBP2, sequence (P0AD65 whole entry): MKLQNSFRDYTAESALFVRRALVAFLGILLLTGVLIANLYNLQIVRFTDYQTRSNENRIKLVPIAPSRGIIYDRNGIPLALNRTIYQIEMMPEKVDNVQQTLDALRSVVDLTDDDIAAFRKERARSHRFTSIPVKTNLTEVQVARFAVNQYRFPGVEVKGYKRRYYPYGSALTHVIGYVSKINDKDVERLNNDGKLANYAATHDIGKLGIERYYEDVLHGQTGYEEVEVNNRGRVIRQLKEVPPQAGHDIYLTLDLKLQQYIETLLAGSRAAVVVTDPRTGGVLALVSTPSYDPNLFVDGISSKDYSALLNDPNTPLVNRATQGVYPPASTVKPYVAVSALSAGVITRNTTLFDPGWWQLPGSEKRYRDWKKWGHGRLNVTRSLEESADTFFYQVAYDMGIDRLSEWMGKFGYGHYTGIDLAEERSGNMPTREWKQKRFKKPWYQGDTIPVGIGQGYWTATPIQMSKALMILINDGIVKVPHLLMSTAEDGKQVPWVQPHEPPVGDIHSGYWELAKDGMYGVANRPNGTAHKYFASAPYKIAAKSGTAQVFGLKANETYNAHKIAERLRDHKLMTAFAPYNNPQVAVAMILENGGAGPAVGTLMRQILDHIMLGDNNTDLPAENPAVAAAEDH
E. coli PBP4, sequence (P24228 21-477): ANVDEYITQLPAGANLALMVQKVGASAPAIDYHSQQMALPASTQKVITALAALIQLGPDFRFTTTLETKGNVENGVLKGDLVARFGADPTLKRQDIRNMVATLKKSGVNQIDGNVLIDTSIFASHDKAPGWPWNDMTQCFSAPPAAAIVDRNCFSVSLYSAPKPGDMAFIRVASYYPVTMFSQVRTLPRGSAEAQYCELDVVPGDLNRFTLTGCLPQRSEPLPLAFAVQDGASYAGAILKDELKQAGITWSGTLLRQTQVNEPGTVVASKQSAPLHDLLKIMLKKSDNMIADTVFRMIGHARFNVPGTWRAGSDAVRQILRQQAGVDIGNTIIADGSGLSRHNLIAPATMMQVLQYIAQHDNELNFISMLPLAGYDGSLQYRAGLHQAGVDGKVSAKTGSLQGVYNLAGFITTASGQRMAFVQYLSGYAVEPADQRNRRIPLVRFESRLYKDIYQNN

SMILES	EC50 (E. coli PBP2) [µM]	MIC (P. aeruginosa ATCC 27853; [2]) [µg/mL]	EC50 (E. coli PBP4; [3]) [µM]	further results
CCN1CCN(C(=O)NC(C(=O)N[C@H]2Cc3cccc(C(=O)O)c3OB2O)c2ccc(S(N)(=O)=O)cc2)C(=O)C1=O (stereo partly drawn) [Example 102, (3R)-3-(2-(4-ethyl-2,3-dioxopiperazine-1-carboxamido)-2-(4-sulfamoylphenyl)acetamido)-2-hydroxy-3,4-dihydro-2H-benzo[e][1,2]oxaborinine-8-carboxylic acid]	> 500			MIC [1]: 8 to 16 mg/L (≈ 13.6 to 27.2 µM)
NCCCN1CCN(C(=O)NC(C(=O)N[C@H]2Cc3cccc(C(=O)O)c3OB2O)c2ccc(O)c(O)c2Cl)C(=O)C1=O (stereo partly drawn) [Example 233, (3R)-3-(2-(4-(3-aminopropyl)-2,3-dioxopiperazine-1-carboxamido)-2-(2-chloro-3,4-dihydroxyphenyl)acetamido)-2-hydroxy-3,4-dihydro-2H-benzo[e][1,2]oxaborinine-8-carboxylic acid]		2 to 4		
CCN1CCN(C(=O)NC(C(=O)N[C@H]2Cc3ccc(F)c(C(=O)O)c3OB2O)c2csc(N)n2)C(=O)C1=O (stereo partly drawn) [Example 109, (3R)-3-(2-(2-aminothiazol-4-yl)-2-(4-ethyl-2,3-dioxopiperazine-1-carboxamido)acetamido)-7-fluoro-2-hydroxy-3,4-dihydro-2H-benzo[e][1,2]oxaborinine-8-carboxylic acid]	> 500			MIC [1]: 2 to 4 mg/L (≈ 3.65 to 7.3 µM)
CCN1CCN(C(=O)NC(C(=O)N[C@H]2Cc3ccc(F)c(C(=O)O)c3OB2O)c2cc(O)c(O)cc2F)C(=O)C1=O (stereo partly drawn) [Example 136, (3R)-3-(2-(4-ethyl-2,3-dioxopiperazine-1-carboxamido)-2-(2-fluoro-4,5-dihydroxyphenyl)acetamido)-7-fluoro-2-hydroxy-3,4-dihydro-2H-benzo[e][1,2]oxaborinine-8-carboxylic acid]			> 500	
CCCN1CCN(C(=O)NC(C(=O)N[C@H]2Cc3cccc(C(=O)O)c3OB2O)c2ccc(O)c(O)c2Cl)C(=O)C1=O (stereo partly drawn) [Example 82, (3R)-3-(2-(2-chloro-3,4-dihydroxyphenyl)-2-(2,3-dioxo-4-propylpiperazine-1-carboxamido)acetamido)-2-hydroxy-3,4-dihydro-2H-benzo[e][1,2]oxaborinine-8-carboxylic acid]			> 500	MIC [1]: 32 to 64 mg/L (≈ 54.4 to 109 µM)
CCN1CCN(C(=O)NC(C(=O)N[C@H]2Cc3cccc(C(=O)O)c3OB2O)c2ccc(O)c(O)c2Cl)C(=O)C1=O (stereo partly drawn) [Example 37, (3R)-3-(2-(2-chloro-3,4-dihydroxyphenyl)-2-(4-ethyl-2,3-dioxopiperazine-1-carboxamido)acetamido)-2-hydroxy-3,4-dihydro-2H-benzo[e][1,2]oxaborinine-8-carboxylic acid]			> 500	MIC [1]: 8 to 16 mg/L (≈ 13.9 to 27.8 µM)
O=C(O)c1c(F)ccc2c1OB(O)[C@@H](NC(=O)C(NC(=O)N1CCN(CCF)C(=O)C1=O)c1ccc(O)c(O)c1Cl)C2 (some centres unmarked) [Example 131]	> 500			EC50 (E. coli PBP4): 30 to 500 µM
CCN1C[C@H](CO)N(C(=O)NC(C(=O)N[C@H]2Cc3cccc(C(=O)O)c3OB2O)c2ncc(O)cc2F)C(=O)C1=O (stereo partly drawn) [Example 234, (3R)-3-(2-((R)-4-ethyl-6-(hydroxymethyl)-2,3-dioxopiperazine-1-carboxamido)-2-(3-fluoro-5-hydroxypyridin-2-yl)acetamido)-2-hydroxy-3,4-dihydro-2H-benzo[e][1,2]oxaborinine-8-carboxylic acid]				MIC (P. aeruginosa ATCC 27853; ATCC27853, read-out: MIC P. aeruginosa ATCC 27853): > 128 µg/mL
CCN1CCN(C(=O)NC(C(=O)N[C@H]2Cc3cccc(C(=O)O)c3OB2O)c2csc(N)n2)C(=O)C1=O (stereo partly drawn) [Example 5, (3R)-3-(2-(2-aminothiazol-4-yl)-2-(4-ethyl-2,3-dioxopiperazine-1-carboxamido)acetamido)-2-hydroxy-3,4-dihydro-2H-benzo[e][1,2]oxaborinine-8-carboxylic acid]	30 to 500		> 500	
CCNC(=O)NCCN1CCN(C(=O)NC(C(=O)N[C@H]2Cc3cccc(C(=O)O)c3OB2O)c2ccc(O)c(O)c2Cl)C(=O)C1=O (stereo partly drawn) [Example 235, (3R)-3-(2-(2-chloro-3,4-dihydroxyphenyl)-2-(4-(2-(3-ethylureido)ethyl)-2,3-dioxopiperazine-1-carboxamido)acetamido)-2-hydroxy-3,4-dihydro-2H-benzo[e][1,2]oxaborinine-8-carboxylic acid]		8 to 16		
CCN1C[C@H](CCN)N(C(=O)NC(C(=O)N[C@H]2Cc3ccc(F)c(C(=O)O)c3OB2O)c2ccc(O)c(O)c2Cl)C(=O)C1=O (stereo partly drawn) [Example 238, (3R)-3-(2-((S)-6-(2-aminoethyl)-4-ethyl-2,3-dioxopiperazine-1-carboxamido)-2-(2-chloro-3,4-dihydroxyphenyl)acetamido)-7-fluoro-2-hydroxy-3,4-dihydro-2H-benzo[e][1,2]oxaborinine-8-carboxylic acid]		2 to 4		
CCN1CCN(C(=O)NC(C(=O)N[C@H]2Cc3cccc(C(=O)O)c3OB2O)c2cnc(O)cn2)C(=O)C1=O (stereo partly drawn) [Example 121, (3R)-3-(2-(4-ethyl-2,3-dioxopiperazine-1-carboxamido)-2-(5-hydroxypyrazin-2-yl)acetamido)-2-hydroxy-3,4-dihydro-2H-benzo[e][1,2]oxaborinine-8-carboxylic acid]	> 500		> 500	
CCN1C[C@H](CO)N(C(=O)NC(C(=O)N[C@H]2Cc3ccc(F)c(C(=O)O)c3OB2O)c2ccc(O)c(O)c2Cl)C(=O)C1=O (stereo partly drawn) [Example 237, (3R)-3-(2-(2-chloro-3,4-dihydroxyphenyl)-2-((R)-4-ethyl-6-(hydroxymethyl)-2,3-dioxopiperazine-1-carboxamido)acetamido)-7-fluoro-2-hydroxy-3,4-dihydro-2H-benzo[e][1,2]oxaborinine-8-carboxylic acid]		0.5 to 1		
CCN1CCN(C(=O)NC(C(=O)N[C@H]2Cc3ccc(F)c(C(=O)O)c3OB2O)c2ncc(O)cc2F)C(=O)C1=O (stereo partly drawn) [Example 145, (3R)-3-(2-(4-ethyl-2,3-dioxopiperazine-1-carboxamido)-2-(3-fluoro-5-hydroxypyridin-2-yl)acetamido)-7-fluoro-2-hydroxy-3,4-dihydro-2H-benzo[e][1,2]oxaborinine-8-carboxylic acid]			> 500	
CNCCN1CCN(C(=O)NC(C(=O)N[C@H]2Cc3cccc(C(=O)O)c3OB2O)c2ccc(O)c(O)c2Cl)C(=O)C1=O (stereo partly drawn) [Example 239, (3R)-3-(2-(2-chloro-3,4-dihydroxyphenyl)-2-(4-(2-(methylamino)ethyl)-2,3-dioxopiperazine-1-carboxamido)acetamido)-2-hydroxy-3,4-dihydro-2H-benzo[e][1,2]oxaborinine-8-carboxylic acid]		8 to 16		
NCCCN1CCN(C(=O)N[C@@H](C(=O)N[C@H]2Cc3ccc(F)c(C(=O)O)c3OB2O)c2ccc(O)c(O)c2Cl)C(=O)C1=O [Example 236, (R)-3-((R)-2-(4-(3-aminopropyl)-2,3-dioxopiperazine-1-carboxamido)-2-(2-chloro-3,4-dihydroxyphenyl)acetamido)-7-fluoro-2-hydroxy-3,4-dihydro-2H-benzo[e][1,2]oxaborinine-8-carboxylic acid]		0.5 to 1		
